# Where no end group is shown, it is not given here.
# Experiments:
# EGF [1] = target: T1, EGF (Homo sapiens, UniProt P01133); assay: Dot blotting analysis of biotinylated peptide with membrane-spotted EGF; format: binding; parameters: Recombinant Human Epidermal Growth Factor (EGF); purchased Abcam plc, Cambridge, Mass; conditions: EGF 10 nM spotted; biotinylated peptide 10 ng/mL; Streptavidin-HRP, TMB
# Experimental: EGF (1 microliter of a 10 nM solution in PBS was spotted a nitrocellulose membrane (obtained from Thermo Fisher Scientific) and the membrane was dried in air for about 30 minutes. The membrane was then incubated in 15 mL of blocking buffer (3 wt. % BSA in PBS) for one hour at room temperature. The membrane was washed three times (15 minutes for each wash) with 15 mL portions of fresh PBST. The washed membrane was incubated with Biotinylated SEQ ID NO: 1 [10 mL of a 10 ng/mL solution in blocking buffer (3 wt. % BSA in PBS)] with gentle agitation for one hour. The membrane was again washed three times (15 minutes for each wash) with 15 mL portions of fresh PBST. The washed membrane was incubated with Streptavidin-HRP [1:5000 dilution in 10 mL of the blocking buffer (3 wt. % BSA in PBS)] for 30 minutes with gentle agitation. Following the incubation, the membrane was washed three times (15 minutes for each wash) with 15 mL portions of fresh PBST. The washed membrane was incubated with 10 mL of the development solution for horseradish peroxidase (TMB-Blotting Substrate Solution, Pierce-Fisher Scientific) with gentle agitation. The color development was stopped by adding water.
# TNF-α = target: T2, TNF-α (Homo sapiens, UniProt P01375); assay: Surface plasmon resonance (SPR) binding assay (Test Method A), TNF-α; conditions: CK-linker modified peptide immobilized on CM5 chip, Biacore 3000, 25° C., TNF-α 62.5-1000 nM, 1-to-1 Langmuir fit; read-out: binding affinity (KD) for TNF-α
# T2 construct: purchased Abcam plc, Cambridge, Mass
# EGF [2] = target: T1, EGF; assay: biochemical; conditions: binding affinity (KD) for EGF, CK-linker modified peptide immobilized on CM5 chip, Biacore 3000, 25° C., EGF 62.5-1000 nM, 1-to-1 Langmuir fit
# Experimental: “Test Method A” refers to the following general surface plasmon resonance (SPR) binding assay. Target protein (e.g., EGF and tumor necrosis factor alpha (TNFα)) is immobilized at 25° C. and diluted peptides are injected for 3 min at a flow rate of 10 μl/min at 25° C.
# The immobilization was performed at 25° C. using HBS-EP as the running buffer. The CM-dextran surfaces of the sensor chip flow cells were activated by a seven minute injection (20 microliters/minute) of freshly prepared 1:1 50 mM NHS: 200 mM EDC. […] The coupling step was followed by a seven minute injection (20 microliters/minute) of ethanolamine hydrochloride-NaOH (1M, pH 8.5) which deactivated residual reactive sites.
# The kinetic analysis for EGF was performed at 25° C. The EGF was diluted in HBS-EP buffer and centrifuged at 14,000 rpm for five minutes at 4° C. Individual test samples of EGF at various concentrations (62.5, 125, 250, 500 and 1000 nM) were injected for three minutes at a flow rate of 10 microliters/minute. The surface was regenerated by injection of 10 microliters of glycine-HCl in water (20 mM, pH 2.5).
# The data analysis was carried out using the BIA Evaluation Software Kit obtained from GE Healthcare Bio-Sciences Corporation. The assay data fitted 1-to-1 Langmuir using global curve fitting analysis.
# T1 sequence (P01133 971-1023 limits assumed): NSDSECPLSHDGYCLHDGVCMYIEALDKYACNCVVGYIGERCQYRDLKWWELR
# T2 sequence (P01375 77-233 limits assumed): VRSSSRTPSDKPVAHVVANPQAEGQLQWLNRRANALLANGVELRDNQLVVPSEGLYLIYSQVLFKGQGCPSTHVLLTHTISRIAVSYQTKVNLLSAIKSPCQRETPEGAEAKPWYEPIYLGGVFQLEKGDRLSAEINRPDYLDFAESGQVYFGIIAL
Substance,dot blot colour development at EGF application site (affinity for EGF) (EGF [1]),Kd (TNF-α) [µM],Kd (EGF [2]) [µM]
"Biotinylated SEQ ID NO: 1: Biotinylated version of peptide SEQ ID NO: 1 (WFEWPYWEMNVPDVWN; also: biotinylated, site not given here)",A dark spot developed,,
"Ac-WFEWPYWEMNVPDVWN-NH2 [SEQ ID NO: 1, WFEWPYWEMNVPDVWN]",,75,0.08
